Assay results published in patent US4593093A, “Acyl derivatives” (priority 1980, dated 1986).
Where a name gives a salt, the structure may show the parent alone. Read-outs that look alike come from different tables or passages of the source.

Assays:
Serratia marcescens [1] = test: Activity in vitro: minimum inhibitory concentration; assay type: cell-based
Streptococcus pneumoniae = test: as above; assay type: cell-based
Pseudomonas aeruginosa [2] = test: as above; assay type: cell-based
Enterobacter aerogenes = test: as above; assay type: cell-based; conditions: Klebsiella aerogenes
Pseudomonas aeruginosa [3] = test: Activity in vivo: survival of intraperitoneally infected mice; conditions: sc, 96 h; mice infected i.p. with Pseudomonas aeruginosa; s.c. three times, 1 h, 3 h and 5 h after infection; survival on 4th day; read-out: CD50 (dosage at which 50% of the animals survive)
Experimental: (§1) Groups of 5 mice are infected intraperitoneally with an aqueous suspension of various pathogens. The test substance in physiological sodium chloride solution is administered subcutaneously twice, i.e. 1 hour and 3 hours after the infection. The number of surviving animals is determined on the 4th day. Various dosages are administered and that dosage at which 50% of the experimental animals survive (CD50, mg/kg) is determined by interpolation.
*Administered subcutaneously three times: 1 hour, 3 hours and 5 hours

Streptococcus faecalis = test: Activity in vitro: minimum inhibitory concentration; assay type: cell-based; conditions: Enterococcus faecalis
Proteus rettgeri = test: as above; assay type: cell-based; conditions: Providencia rettgeri
Staphylococcus aureus = test: as above; assay type: cell-based
Staphylococcus epidermis = test: as above; assay type: cell-based
Proteus morganii = test: as above; assay type: cell-based; conditions: Morganella morganii
Klebsiella pseumoniae = test: as above; assay type: cell-based
Proteus inconstans = test: as above; assay type: cell-based; conditions: Providencia alcalifaciens
Citrobacter freundii = test: as above; assay type: cell-based
Streptococcus pyogenes [4] = test: as above; assay type: cell-based
Proteus mirabilis = test: as above; assay type: cell-based
Escherichia coli [5] = test: as above; assay type: cell-based
Haemophilus influenzae = test: Activity in vivo: survival of intraperitoneally infected mice; conditions: sc, 96 h; mice infected i.p. with Haemophilus influenzae; s.c. twice, 1 h and 3 h after infection; survival on 4th day; read-out: CD50 (dosage at which 50% of the animals survive)
Experimental: as §1

Enterobacter cloacae [6] = test: as above; conditions: sc, 96 h; mice infected i.p. with Enterobacter cloacae; s.c. twice, 1 h and 3 h after infection; survival on 4th day; read-out: CD50 (dosage at which 50% of the animals survive)
Experimental: as §1

Escherichia coli [7] = test: as above; conditions: sc, 96 h; mice infected i.p. with Escherichia coli; s.c. twice, 1 h and 3 h after infection; survival on 4th day; read-out: CD50 (dosage at which 50% of the animals survive)
Experimental: as §1

Streptococcus pyogenes [8] = test: as above; conditions: sc, 96 h; mice infected i.p. with Streptococcus pyogenes; s.c. twice, 1 h and 3 h after infection; survival on 4th day; read-out: CD50 (dosage at which 50% of the animals survive)
Experimental: as §1

Serratia marcescens [9] = test: as above; conditions: sc, 96 h, 1 h and 3 h after infection, survival on 4th day, read-out: CD50 (dosage at which 50% of the animals survive)
Experimental: as §1

Toxicity, LD50 = conditions: in vivo
Enterobacter cloacae [10] = test: Activity in vitro: minimum inhibitory concentration; assay type: cell-based
Streptococcus viridans = test: as above; assay type: cell-based
[11] = Pseudomonas aeruginosa strain 3
[12] = Enterobacter aerogenes strain 1
[13] = Enterobacter aerogenes strain 2
[14] = Streptococcus faecalis strain 1
[15] = Streptococcus faecalis strain 2
[16] = Streptococcus pyogenes strain 1, read-out: Minimum inhibitory concentration
[17] = Streptococcus pyogenes strain 2, read-out: Minimum inhibitory concentration
[18] = mice infected i.p. with Serratia marcescens strain 1, s.c. twice

CO/N=C(\C(=O)N[C@@H]1C(=O)N2C(C(=O)O)=C(C)CS[C@H]12)c1c[se]c(N)n1 [Product F, (6R, 7R)-7-[2-(2-amino-4-selenazolyl)-2-[(Z)-methoxyimino]-acetamido]-3-methyl-3-oxo-5-thia-1-azabicyclo[4.2.0]oct-2-ene-2-carboxylic acid sodium salt]
MIC (Serratia marcescens [1]; Serratia marcescens strain 1): 3.1 µg/mL | MIC (Serratia marcescens [1]; Serratia marcescens strain 2): 6.3 µg/mL | MIC (Serratia marcescens [1]; Serratia marcescens strain 3): 0.4 µg/mL | MIC (Streptococcus pneumoniae): 12.5 µg/mL | MIC (Pseudomonas aeruginosa [2]; Pseudomonas aeruginosa strain 1): > 200 µg/mL | MIC (Pseudomonas aeruginosa [2]; Pseudomonas aeruginosa strain 2): > 200 µg/mL | MIC (Pseudomonas aeruginosa [2]; [11]): 200 µg/mL | MIC (Enterobacter aerogenes; [12]): 0.2 µg/mL | MIC (Enterobacter aerogenes; [13]): 0.2 µg/mL | ED50 (Pseudomonas aeruginosa [3]): > 200 mg/kg | MIC (Streptococcus faecalis; [14]): > 200 µg/mL | MIC (Streptococcus faecalis; [15]): > 200 µg/mL | MIC (Proteus rettgeri): 0.1 µg/mL | MIC (Staphylococcus aureus; Staphylococcus aureus strain 1): 50 µg/mL | MIC (Staphylococcus aureus; Staphylococcus aureus strain 2): 100 µg/mL | MIC (Staphylococcus aureus; Staphylococcus aureus strain 3): 50 µg/mL | MIC (Staphylococcus aureus; Staphylococcus aureus strain 4): 100 µg/mL | MIC (Staphylococcus epidermis): 100 µg/mL | MIC (Proteus morganii): 50 µg/mL | MIC (Klebsiella pseumoniae; Klebsiella pseumoniae strain 1): 0.2 µg/mL | MIC (Klebsiella pseumoniae; Klebsiella pseumoniae strain 2): 0.05 µg/mL | MIC (Klebsiella pseumoniae; Klebsiella pseumoniae strain 3): 0.05 µg/mL | MIC (Proteus inconstans): ≤ 0.025 µg/mL | MIC (Citrobacter freundii; Citrobacter freundii strain 1): 200 µg/mL | MIC (Citrobacter freundii; Citrobacter freundii strain 2): 1.6 µg/mL | MIC (Streptococcus pyogenes [4]; [16]): 3.1 µg/mL | MIC (Streptococcus pyogenes [4]; [17]): 0.05 µg/mL | MIC (Proteus mirabilis; Proteus mirabilis strain 3): 0.1 µg/mL | MIC (Proteus mirabilis; Proteus mirabilis strain 4): 0.8 µg/mL | MIC (Proteus mirabilis; Proteus mirabilis strain 5): 0.4 µg/mL | MIC (Escherichia coli [5]; Escherichia coli strain 1): 0.8 µg/mL | MIC (Escherichia coli [5]; Escherichia coli strain 2): 0.05 µg/mL | MIC (Escherichia coli [5]; Escherichia coli strain 3): 12.5 µg/mL | MIC (Escherichia coli [5]; Escherichia coli strain 4): 100 µg/mL | MIC (Escherichia coli [5]; Escherichia coli strain 5): 3.1 µg/mL | ED50 (Haemophilus influenzae): 4 mg/kg | ED50 (Enterobacter cloacae [6]): > 25 mg/kg | ED50 (Escherichia coli [7]): 0.06 mg/kg | ED50 (Streptococcus pyogenes [8]): < 0.05 mg/kg | ED50 (Serratia marcescens [9]; [18]): 0.59 mg/kg | ED50 (Serratia marcescens [9]; mice infected i.p. with Serratia marcescens strain 2, s.c. twice): 5.1 mg/kg | LD50 (Toxicity, LD50; po): > 5000 mg/kg | LD50 (Toxicity, LD50; sc): > 4000 mg/kg | MIC (Enterobacter cloacae [10]; Enterobacter cloacae strain 1): > 200 µg/mL | MIC (Enterobacter cloacae [10]; Enterobacter cloacae strain 2): 25 µg/mL | MIC (Enterobacter cloacae [10]; Enterobacter cloacae strain 3): > 200 µg/mL | MIC (Streptococcus viridans): 12.5 µg/mL

CC(=O)OCC1=C(C(=O)O)N2C(=O)[C@@H](NC(=O)/C(=N\OC(C)(C)C(=O)O)c3c[se]c(N)n3)[C@H]2SC1 [Product I, disodium salt]
MIC (Serratia marcescens [1]; Serratia marcescens strain 1): 1.6 µg/mL | MIC (Serratia marcescens [1]; Serratia marcescens strain 2): 3.1 µg/mL | MIC (Serratia marcescens [1]; Serratia marcescens strain 3): 0.4 µg/mL | MIC (Streptococcus pneumoniae): 0.2 µg/mL | MIC (Pseudomonas aeruginosa [2]; [11]): 1.6 µg/mL | MIC (Enterobacter aerogenes; [12]): 0.4 µg/mL | MIC (Enterobacter aerogenes; [13]): 0.2 µg/mL | ED50 (Pseudomonas aeruginosa [3]): 23 mg/kg | MIC (Streptococcus faecalis; [14]): > 100 µg/mL | MIC (Streptococcus faecalis; [15]): > 100 µg/mL | MIC (Proteus rettgeri): 0.1 µg/mL | MIC (Staphylococcus aureus; Staphylococcus aureus strain 1): 50 µg/mL | MIC (Staphylococcus aureus; Staphylococcus aureus strain 2): 100 µg/mL | MIC (Staphylococcus aureus; Staphylococcus aureus strain 3): 50 µg/mL | MIC (Staphylococcus aureus; Staphylococcus aureus strain 4): 100 µg/mL | MIC (Staphylococcus epidermis): 50 µg/mL | MIC (Proteus morganii): 0.8 µg/mL | MIC (Klebsiella pseumoniae; Klebsiella pseumoniae strain 1): 0.8 µg/mL | MIC (Klebsiella pseumoniae; Klebsiella pseumoniae strain 2): 0.4 µg/mL | MIC (Klebsiella pseumoniae; Klebsiella pseumoniae strain 3): 0.8 µg/mL | MIC (Proteus inconstans): 0.012 µg/mL | MIC (Citrobacter freundii; Citrobacter freundii strain 1): 100 µg/mL | MIC (Citrobacter freundii; Citrobacter freundii strain 2): 1.6 µg/mL | MIC (Streptococcus pyogenes [4]; [16]): 0.2 µg/mL | MIC (Streptococcus pyogenes [4]; [17]): 0.05 µg/mL | MIC (Proteus mirabilis; Proteus mirabilis strain 3): 0.1 µg/mL | MIC (Proteus mirabilis; Proteus mirabilis strain 4): 0.1 µg/mL | MIC (Proteus mirabilis; Proteus mirabilis strain 5): 0.2 µg/mL | MIC (Escherichia coli [5]; Escherichia coli strain 1): 1.6 µg/mL | MIC (Escherichia coli [5]; Escherichia coli strain 2): 0.2 µg/mL | MIC (Escherichia coli [5]; Escherichia coli strain 3): 0.8 µg/mL | MIC (Escherichia coli [5]; Escherichia coli strain 5): 0.4 µg/mL | ED50 (Enterobacter cloacae [6]): > 50 mg/kg | ED50 (Escherichia coli [7]): 0.067 mg/kg | ED50 (Streptococcus pyogenes [8]): 2.7 mg/kg | ED50 (Serratia marcescens [9]; [18]): 1.8 mg/kg | MIC (Enterobacter cloacae [10]; Enterobacter cloacae strain 1): > 100 µg/mL | MIC (Enterobacter cloacae [10]; Enterobacter cloacae strain 2): 6.3 µg/mL | MIC (Enterobacter cloacae [10]; Enterobacter cloacae strain 3): > 100 µg/mL | MIC (Streptococcus viridans): 6.3 µg/mL
